Results: US12404285B2, “KRAS G12D proteolysis targeting chimeras” (PAQ Therapeutics Inc., priority 2022, dated 2025)

target: T1, KRAS (G12D)-HiBit in AsPc-1-KRAS (G12D)-HiBit-KI cell (Homo sapiens, UniProt P01116, G12D); experiment: G12D HiBit assay; format: cell-based; settings: 24 hours compound treatment, absolute DC50, read-out: Average PHA DC50
T1 construct: host or cells: AsPc-1-KRAS (G12D)-HiBit-KI cells (knock-in line)
Method: Day 1. Prepared the culture medium for AsPc-1-KRAS (G12D)-HiBit-KI cell (Pharmaron) using RPMI 1640 medium (Gibco, 11875093) with 10% FBS (Gibco, 10099141C) and 1% Penicillin-Streptomycin Liquid (Solarbio, P1400). Cultivated cells in T-75 flasks in a cell culture incubator (Thermo, Model: 371) at 37° C., 5% CO2. Allowed cells to reach approximately 80% confluence before splitting. Rinsed cultivated cells in T-75 flasks with 5 mL PBS (Solarbio, P1020-500). Aspirated off PBS, added 1.5 mL trypsin (Invitrogen, #25300), and incubated at 37° C. for approximately 5 minutes or until the cells detached. Inactivated trypsin by adding excessive serum containing medium. Harvested the cells from flask into cell culture medium and counted the cell number. Seeded AsPc-1-KRAS (G12D)-HiBit-KI cell into 384-well plate (Corning, 3570) (cell density: 5×10^3 cells/well in 50 μL medium) in RPMI 1640 medium and incubated overnight at 37° C. and 5% CO2.
Day 2. Test compounds were dissolved at 0.3 mM in DMSO (Solarbio, D8371) as stock solution. Transferred 45 μL of stock solution to a 384-well plate (Labcyte, 001-14555). Performed 3-fold, 10-points dilution via transferring 15 μL compound into 30 μL DMSO by using TECAN liquid handler (TECAN, Freedom EVO200). The compound plates were spin at room temperature at 1,000 RPM for 1 minute (Eppendorf, 5810R). Transferred 50 nL of diluted compounds from compound source plate into the cell plate by Echo (Labcyte, 550) to achieve final concentrations of 300 nM, 100 nM, 33.3 nM, 11.1 nM, 3.7 nM, 1.23 nM, 0.41 nM, 0.14 nM, 0.046 nM and 0.015 nM, then mixed the cell plate on a plate shaker (Yoning, WZ-4) for 15 seconds at 900 rpm. After compound treatment for 24 hours, removed the plate from incubators and equilibrated at room temperature for 15 minutes. Prepared the HiBit reagent (Promega, N3040) by mixing 10 mL of Nano-Glo®-HiBiT Lytic Buffer with 200 μL of Nano-Glo®-HiBiT Lytic Substrate and 100 μL of LgBiT Protein. Added 20 μL of HiBit reagent into each well of the cell plate and spun the plates at room temperature at 1,000 RPM for 1 minute. Then shook the plates at 600 RPM at room temperature for 20 minutes using a plate shaker (Yoning, WZ-4), and read the luminescence by EnVision (PerkinElmer, 2105-0020).
The inhibition activity was calculated using the following formula: HiBit-G12D level (%)=100%×[Luminescence(Sample)/Mean of Luminescence (HC)] where HC (high control) is obtained from cells treated with 0.1% DMSO only.
Absolute DC50 was calculated by fitting the curve using GraphPad Prism v8.0.2 (analyis 263): Y=Bottom+(100−Bottom)/(1+10^(Log AbsoluteIC50−X)*HillSlope+log((100−Bottom)/(50−Bottom)−1)))
The data are reported in Table 3, wherein “+++”=DC50 less than 100 nM, “++”=DC50 greater than or equal to 100 nM and less than 300 nM; “+”=DC50 greater than or equal to 300 nM.

T1 sequence (P01116 1-188 isoform P01116-2 G12D): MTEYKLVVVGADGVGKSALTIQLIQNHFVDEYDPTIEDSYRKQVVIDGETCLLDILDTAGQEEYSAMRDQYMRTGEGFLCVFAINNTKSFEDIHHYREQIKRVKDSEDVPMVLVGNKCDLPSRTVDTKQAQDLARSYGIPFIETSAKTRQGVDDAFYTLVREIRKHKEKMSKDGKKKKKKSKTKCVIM

Structure (SMILES) | DC50 [nM]
CCc1c(F)ccc2cc(O)cc(-c3ncc4c(N5CCCC6(CCO6)C5)nc(OC[C@@]56CCCN5[C@H](COC(=O)N5CCC(OCCCc7cccc8c7n(C)c(=O)n8C7CCC(=O)NC7=O)CC5)CC6)nc4c3F)c12 (stereo partly drawn) [Compound 34] | < 100
C#Cc1c(F)ccc2cc(O)cc(-c3ncc4c(N5CCCC6(CCO6)C5)nc(OC[C@@]56CCCN5[C@H](COC(=O)N5CCC(OCCCc7cccc8c7n(C)c(=O)n8C7CCC(=O)NC7=O)CC5)CC6)nc4c3F)c12 (stereo partly drawn) [Compound 35] | < 100
C#Cc1c(F)ccc2cccc(-c3ncc4c(N5CCCC6(CCO6)C5)nc(OC[C@@]56CCCN5[C@H](COC(=O)N5CCC(OCCCc7cccc8c7n(C)c(=O)n8C7CCC(=O)NC7=O)CC5)CC6)nc4c3F)c12 (stereo partly drawn) [Compound 36] | ≥ 300
C#Cc1c(F)ccc2cccc(-c3ncc4c(N5CC6CCC(C5)N6)nc(OC[C@@]56CCCN5[C@H](COC(=O)N5CCC(CN7CCC(c8cccc9c8n(C)c(=O)n9C8CCC(=O)NC8=O)CC7)CC5)CC6)nc4c3F)c12 (stereo partly drawn) [Compound 38, [(3S,8S)-8-[[4-(3,8-Diazabicyclo[3.2.1]octan-3-yl)-7-(8-ethynyl-7-fluoro-1-naphthyl)-8-fluoro-pyrido[4,3-d]pyrimidin-2-yl]oxymethyl]-1,2,3,5,6,7-hexahydropyrrolizin-3-yl]methyl4-[[4-[1-(2,6-dioxo-3-piperidyl)-3-methyl-2-oxo-benzimidazol-4-yl]-1-piperidyl]methyl]piperidine-1-carboxylate] | < 100
C#Cc1c(F)ccc2cccc(-c3ncc4c(N5CC6CCC(C5)N6)nc(OC[C@@]56CCCN5[C@H](COC(=O)NCCCC(=O)N5CCC(c7cccc8c7n(C)c(=O)n8C7CCC(=O)NC7=O)CC5)CC6)nc4c3F)c12 (stereo partly drawn) [Compound 39, [(3S,8S)-8-[[4-(3,8-Diazabicyclo[3.2.1]octan-3-yl)-7-(8-ethynyl-7-fluoro-1-naphthyl)-8-fluoro-pyrido[4,3-d]pyrimidin-2-yl]oxymethyl]-1,2,3,5,6,7-hexahydropyrrolizin-3-yl]methyl N-[4-[4-[1-(2,6-dioxo-3-piperidyl)-3-methyl-2-oxo-benzimidazol-4-yl]-1-piperidyl]-4-oxo-butyl]carbamate] | ≥ 300
C#Cc1c(F)ccc2cccc(-c3ncc4c(N5CC6CCC(C5)N6)nc(OC[C@@]56CCCN5[C@H](COC(=O)N5CCC7(CC5)CN(CCCc5cccc8c5n(C)c(=O)n8C5CCC(=O)NC5=O)CCO7)CC6)nc4c3F)c12 (stereo partly drawn) [Compound 40] | < 100
C#Cc1c(F)ccc2cccc(-c3ncc4c(N5CC6CCC(C5)N6)nc(OC[C@@]56CCCN5[C@H](COC(=O)N5CCC(CCCCc7cccc8c7n(C)c(=O)n8C7CCC(=O)NC7=O)CC5)CC6)nc4c3F)c12 (stereo partly drawn) [Compound 41] | ≥ 300
C#Cc1c(F)ccc2cccc(-c3ncc4c(N5CC6CCC(C5)N6)nc(OC[C@@]56CCCN5[C@H](COC(=O)NCCCC(=O)N5CCC(c7ccc8c(c7)n(C)c(=O)n8C7CCC(=O)NC7=O)CC5)CC6)nc4c3F)c12 (stereo partly drawn) [Compound 45] | ≥ 300
C#Cc1c(F)ccc2cccc(-c3ncc4c(N5CC6CCC(C5)N6)nc(OC[C@@]56CCCN5[C@H](COC(=O)N5CCC7(CC5)CN(CC#Cc5cccc8c5n(C)c(=O)n8C5CCC(=O)NC5=O)CCO7)CC6)nc4c3F)c12 (stereo partly drawn) [Compound 46] | ≥ 300
C#Cc1c(F)ccc2cccc(-c3ncc4c(N5CC6CCC(C5)N6)nc(OC[C@@]56CCCN5[C@H](COC(=O)N5CCC(CC7CCN(Cc8ccc9c(c8)n(C)c(=O)n9C8CCC(=O)NC8=O)CC7)CC5)CC6)nc4c3F)c12 (stereo partly drawn) [Compound 47] | < 100
C#Cc1c(F)ccc2cccc(-c3ncc4c(N5CC6CCC(C5)N6)nc(OC[C@@]56CCCN5[C@H](COC(=O)N5CCC(CC7CCN(c8cccc9c8n(C)c(=O)n9C8CCC(=O)NC8=O)CC7)CC5)CC6)nc4c3F)c12 (stereo partly drawn) [Compound 48] | ≥ 300
C#Cc1c(F)ccc2cccc(-c3ncc4c(N5CC6CCC(C5)N6)nc(OC[C@@]56CCCN5[C@H](COC(=O)N5CCC(CCC7CCN(Cc8cccc9c8n(C)c(=O)n9C8CCC(=O)NC8=O)CC7)CC5)CC6)nc4c3F)c12 (stereo partly drawn) [Compound 49] | ≥ 300
C#Cc1c(F)ccc2cccc(-c3ncc4c(N5CC6CCC(C5)N6)nc(OC[C@@]56CCCN5[C@H](COC(=O)N5CCC(C7CCN(Cc8cccc9c8n(C)c(=O)n9C8CCC(=O)NC8=O)CC7)CC5)CC6)nc4c3F)c12 (stereo partly drawn) [Compound 51] | < 100
C#Cc1c(F)ccc2cccc(-c3ncc4c(N5CC6CCC(C5)N6)nc(OC[C@@]56CCCN5[C@H](COC(=O)N5CCC(N7CCN(Cc8cccc9c8n(C)c(=O)n9C8CCC(=O)NC8=O)CC7)CC5)CC6)nc4c3F)c12 (stereo partly drawn) [Compound 53, [(3S,8S)-8-[[4-(3,8-diazabicyclo [3.2.1]octan-3-yl)-7-(8-ethynyl-7-fluoro-1-naphthyl)-8-fluoro-pyrido[4,3-d]pyrimidin-2-yl]oxymethyl]-1,2,3,5,6,7-hexahydropyrrolizin-3-yl]methyl4-[4-[[1-(2,6-dioxo-3-piperidyl)-3-methyl-2-oxo-benzimidazol-4-yl]methyl]piperazin-1-yl]piperidine-1-carboxylate] | < 100

Further lines, results first:

DC50 [nM] | Structure (SMILES)
100 to 300 | C#Cc1c(F)ccc2cccc(-c3ncc4c(N5CC6CCC(C5)N6)nc(OC[C@@]56CCCN5[C@H](COC(=O)N5CCC(OCc7cccc8c7n(C)c(=O)n8C7CCC(=O)NC7=O)CC5)CC6)nc4c3F)c12 (stereo partly drawn) [Compound 37, [(3S,8S)-8-[[4-(3,8-Diazabicyclo[3.2.1]octan-3-yl)-7-(8-ethynyl-7-fluoro-1-naphthyl)-8-fluoro-pyrido[4,3-d]pyrimidin-2-yl]oxymethyl]-1,2,3,5,6,7-hexahydropyrrolizin-3-yl]methyl4-[[1-(2,6-dioxo-3-piperidyl)-3-methyl-2-oxo-benzimidazol-4-yl]methoxy]piperidine-1-carboxylate]
< 100 | C#Cc1c(F)ccc2cccc(-c3ncc4c(N5CC6CCC(C5)N6)nc(OC[C@@]56CCCN5[C@H](COC(=O)N5CC(CN7CCN(c8ccc9c(c8)n(C)c(=O)n9C8CCC(=O)NC8=O)CC7)C5)CC6)nc4c3F)c12 (stereo partly drawn) [Compound 42]
≥ 300 | C#Cc1c(F)ccc2cccc(-c3ncc4c(N5CC6CCC(C5)N6)nc(OC[C@@]56CCCN5[C@H](COC(=O)N5CCC(CCCCc7ccc8c(c7)n(C)c(=O)n8C7CCC(=O)NC7=O)CC5)CC6)nc4c3F)c12 (stereo partly drawn) [Compound 43]
< 100 | C#Cc1c(F)ccc2cccc(-c3ncc4c(N5CC6CCC(C5)N6)nc(OC[C@@]56CCCN5[C@H](COC(=O)N5CCC(CN7CCC(c8ccc9c(c8)n(C)c(=O)n9C8CCC(=O)NC8=O)CC7)CC5)CC6)nc4c3F)c12 (stereo partly drawn) [Compound 44]
< 100 | C#Cc1c(F)ccc2cccc(-c3ncc4c(N5CC6CCC(C5)N6)nc(OC[C@@]56CCCN5[C@H](COC(=O)N5CCC(OCCC#Cc7ccc8c(c7)n(C)c(=O)n8C7CCC(=O)NC7=O)CC5)CC6)nc4c3F)c12 (stereo partly drawn) [Compound 50]
< 100 | C#Cc1c(F)ccc2cccc(-c3ncc4c(N5CC6CCC(C5)N6)nc(OC[C@@]56CCCN5[C@H](COC(=O)N5CCC(OC7CCN(Cc8ccc9c(c8)n(C)c(=O)n9C8CCC(=O)NC8=O)CC7)CC5)CC6)nc4c3F)c12 (stereo partly drawn) [Compound 52]
< 100 | C#Cc1c(F)ccc2cccc(-c3ncc4c(N5CC6CCC(C5)N6)nc(OC[C@@]56CCCN5[C@H](COC(=O)N5CCC(OC7CN(Cc8cccc9c8n(C)c(=O)n9C8CCC(=O)NC8=O)C7)CC5)CC6)nc4c3F)c12 (stereo partly drawn) [Compound 54, [(3S,8S)-8-[[4-(3,8-Diazabicyclo[3.2.1]octan-3-yl)-7-(8-ethynyl-7-fluoro-1-naphthyl)-8-fluoro-pyrido[4,3-d]pyrimidin-2-yl]oxymethyl]-1,2,3,5,6,7-hexahydropyrrolizin-3-yl]methyl 4-[1-[[1-(2,6-dioxo-3-piperidyl)-3-methyl-2-oxo-benzimidazol-4-yl]methyl]azetidin-3-yl]oxypiperidine-1-carboxylate]
